From patent US8614217B2 (priority 2008, dated 2013)

Assay: log P(HCOOH) (HPLC/MS)
Format: physicochemical
Settings: HPLC on reversed phase columns, EEC directive 79/831 Annex V.A8; pH 2.7, 0.1% formic acid in water / acetonitrile gradient

Compared with C=C(C)OC(=O)Nc1nc(CON=C(c2ccccc2)n2nnnc2C)cs1 [Example 104], C=C(C)OC(=O)Nc1cccc(CON=C(c2ccccc2)n2nnnc2C)n1 [Example 107] is higher in log p: 2.96 for the first, 3.21 for the second.

Compared with Cc1nnnn1C(=NOCc1cccc(NC(=O)C2(c3ccccc3)CC2)n1)c1ccccc1 [Example 110], Cc1nnnn1C(=NOCc1cccc(NC(=O)COCc2ccccc2)n1)c1ccccc1 [Example 144] is higher in log p: 2.55 for the first, 3.73 for the second.

First: Cc1nnnn1C(=NOCc1cccc(NC(=O)C(F)(F)C(F)(F)C(F)(F)C(F)(F)C(F)(F)C(F)(F)C(F)(F)F)n1)c1ccccc1 [Example 119]
Second: Cc1nnnn1C(=NOCc1cccc(NC(=O)CC2CC2)n1)c1ccccc1 [Example 124]
The log p of the first is higher: 5.93 for the first, 2.94 for the second.

Compared with Cc1nnnn1C(=NOCc1cccc(NC(=O)c2ccc(Cl)nc2)n1)c1ccccc1 [Example 121], Cc1nnnn1C(=NOCc1cccc(NC(=O)CSCc2ccccc2)n1)c1ccccc1 [Example 151] is higher in log p: 3.15 for the first, 3.73 for the second.

Compared with Cc1nnnn1C(=NOCc1cccc(NC(=O)CO[C@@H]2C[C@H](C)CC[C@H]2C(C)C)n1)c1ccccc1 [Example 126], Cc1nnnn1C(=NOCc1cccc(NC(=O)C2CCC(=O)O2)n1)c1ccccc1 (stereo not shown) [Example 130] is lower in log p: 5.95 for the first, 2.44 for the second.

COC(=O)CCCCC(=O)Nc1cccc(CON=C(c2ccccc2)n2nnnc2C)n1 [Example 145] and CCOC(=O)CCCC(=O)Nc1cccc(CON=C(c2ccccc2)n2nnnc2C)n1 [Example 148] are within 0.2 log units of each other in log p: 2.86 for the first, 2.98 for the second.

Going from Cn1nnnc1C(=NOCc1csc(NC(=O)CC2CC2)n1)c1cccc(F)c1 [Example 170] to COCCOCC(=O)Nc1nc(CON=C(c2cccc(F)c2)c2nnnn2C)cs1 [Example 183], the log p falls from 2.98 to 2.68.

Compared with CC1CCC(C(C)C)C(OCC(=O)Nc2nc(CON=C(c3cccc(F)c3)c3nnnn3C)cs2)C1 (stereo not shown) [Example 172], COCCOCCOCC(=O)Nc1nc(CON=C(c2cccc(F)c2)c2nnnn2C)cs1 [Example 186] is lower in log p: 5.47 for the first, 2.66 for the second.

Compared with Cn1nnnc1C(=NOCc1csc(NC(=O)C(F)(F)C(F)(F)C(F)(F)F)n1)c1cccc(F)c1 [Example 192], Cn1nnnc1C(=NOCc1csc(NC(=O)Cc2ccsc2)n1)c1cccc(F)c1 [Example 233] is lower in log p: 3.75 for the first, 3.21 for the second.

Cn1nnnc1C(=NOCc1csc(NC(=O)CSCc2ccccc2)n1)c1cccc(F)c1 [Example 194] and Cn1nnnc1C(=NOCc1csc(NC(=O)CCCOc2ccccc2)n1)c1cccc(F)c1 [Example 196] are within 0.2 log units of each other in log p: 3.68 for the first, 3.7 for the second.

Compared with CC(=O)OCCCCOC(=O)Nc1nc(CON=C(c2cccc(F)c2)c2nnnn2C)cs1 [Example 198], Cn1nnnc1C(=NOCc1csc(NC(=O)OCC(Cl)(Cl)Cl)n1)c1ccccc1 [Example 245] is higher in log p: 3.15 for the first, 3.7 for the second.

Going from Cn1nnnc1C(=NOCc1csc(NC(=O)CCC2CCCCC2)n1)c1ccccc1 [Example 206] to Cc1nnnn1C(=NOCc1csc(NC(=O)CCCC2CCCCC2)n1)c1ccccc1 [Example 229], the log p rises from 4.3 to 4.82.

First: Cn1nnnc1C(=NOCc1cccc(NC(=O)c2cccs2)n1)c1ccccc1 [Example 214]
Second: Cn1nnnc1C(=NOCc1cccc(NC(=O)CCCc2ccsc2)n1)c1ccccc1 [Example 221]
The log p of the first is lower: 3.21 for the first, 3.7 for the second.

Cn1nnnc1C(=NOCc1cccc(NC(=O)CSCc2ccccc2)n1)c1ccccc1 [Example 218] showed a log p of 3.73.

Same assay, conditions: HPLC on reversed phase columns, EEC directive 79/831 Annex V.A8; pH 2.7 with 0.1% formic acid in water and acetonitrile

Cn1nnnc1C(=NOCc1csc(NC(=O)COc2ccccc2Cl)n1)c1ccccc1 [Example 247] and Cn1nnnc1C(=NOCc1csc(NC(=O)COc2cccc(Cl)c2)n1)c1ccccc1 [Example 249] are within 0.2 log units of each other in log p: 3.61 for the first, 3.7 for the second.

Cn1nnnc1C(=NOCc1csc(NC(=O)c2cccc(Cl)c2)n1)c1ccccc1 [Example 248] and Cn1nnnc1C(=NOCc1csc(NC(=O)c2ccc(Cl)cc2)n1)c1ccccc1 [Example 333] are within 0.2 log units of each other in log p: 3.73 for the first, 3.74 for the second.

Cn1nnnc1C(=NOCc1csc(NC(=O)COc2ccc(Cl)cc2)n1)c1ccccc1 [Example 250] and CCOc1ccc(C(=O)Nc2nc(CON=C(c3ccccc3)c3nnnn3C)cs2)cc1 [Example 271] are within 0.2 log units of each other in log p: 3.68 for the first, 3.64 for the second.

Going from CCCCc1ccc(C(=O)Nc2nc(CON=C(c3ccccc3)c3nnnn3C)cs2)cc1 [Example 268] to Cc1ccc(C(=O)Nc2nc(CON=C(c3ccccc3)c3nnnn3C)cs2)cc1 [Example 335], the log p falls from 4.68 to 3.59.

Compared with Cn1nnnc1C(=NOCc1csc(NC(=O)CC23CC4CC(CC(C4)C2)C3)n1)c1ccccc1 [Example 278], CC1CCC(C(C)C)C(OCC(=O)Nc2nc(CON=C(c3ccccc3)c3nnnn3C)cs2)C1 (stereo not shown) [Example 284] is higher in log p: 4.69 for the first, 5.39 for the second.

COCCOCC(=O)Nc1nc(CON=C(c2ccccc2)c2nnnn2C)cs1 [Example 286] and COCCOC(=O)Nc1nc(CON=C(c2cccc(F)c2)c2nnnn2C)cs1 [Example 301] are within 0.2 log units of each other in log p: 2.54 for the first, 2.66 for the second.

First: Cn1nnnc1C(=NOCc1csc(NC(=O)COc2ccccc2-c2ccccc2)n1)c1ccccc1 [Example 289]
Second: COc1ccccc1C(=O)Nc1nc(CON=C(c2ccccc2)c2nnnn2C)cs1 [Example 322]
The log p of the first is higher: 4.32 for the first, 3.5 for the second.

Compared with COC(=O)CCCCC(=O)Nc1nc(CON=C(c2cccc(F)c2)c2nnnn2C)cs1 [Example 298], Cn1nnnc1C(=NOCc1csc(NC(=O)c2cc(F)cc(F)c2)n1)c1ccccc1 [Example 340] is higher in log p: 2.94 for the first, 3.63 for the second.

Cc1ccc(C(=O)Nc2cccc(CON=C(c3ccccc3)c3nnnn3C)n2)cc1 [Example 306] and Cc1ccccc1C(=O)Nc1cccc(CON=C(c2ccccc2)c2nnnn2C)n1 [Example 307] are within 0.2 log units of each other in log p: 3.65 for the first, 3.5 for the second.

CCOc1cccc(C(=O)Nc2cccc(CON=C(c3ccccc3)c3nnnn3C)n2)c1 [Example 313] and Cc1ccccc1C(=O)Nc1cccc(CON=C(c2cccc(F)c2)c2nnnn2C)n1 [Example 331] are within 0.2 log units of each other in log p: 3.79 for the first, 3.61 for the second.

First: Cn1nnnc1C(=NOCc1csc(NC(=O)c2ccccc2OC(F)(F)F)n1)c1ccccc1 [Example 325]
Second: Cc1ccccc1C(=O)Nc1nc(CON=C(c2ccccc2)c2nnnn2C)cs1 [Example 327]
The log p of the first is higher: 3.61 for the first, 3.41 for the second.

Cn1nnnc1C(=NOCc1cccc(NC(=O)c2ccccc2OC(F)(F)F)n1)c1cccc(F)c1 [Example 328] and COc1ccccc1C(=O)Nc1cccc(CON=C(c2cccc(F)c2)c2nnnn2C)n1 [Example 345] are within 0.2 log units of each other in log p: 3.9 for the first, 3.79 for the second.

Cn1nnnc1C(=NOCc1cccc(NC(=O)c2ccc(F)cc2)n1)c1cccc(F)c1 [Example 329] and Cn1nnnc1C(=NOCc1cccc(NC(=O)c2ccccc2F)n1)c1cccc(F)c1 [Example 366] are within 0.2 log units of each other in log p: 3.57 for the first, 3.65 for the second.

Going from Cc1ccc(C(=O)Nc2cccc(CON=C(c3cccc(F)c3)c3nnnn3C)n2)c(Cl)c1 [Example 354] to Cn1nnnc1C(=NOCc1cccc(NC(=O)c2ccccc2Cl)n1)c1cccc(F)c1 [Example 362], the log p falls from 3.9 to 3.57.

First: Cn1nnnc1C(=NOCc1cccc(NC(=O)c2cccnc2Cl)n1)c1cccc(F)c1 [Example 360]
Second: Cn1nnnc1C(=NOCc1cccc(NC(=O)c2ccccc2Br)n1)c1cccc(F)c1 [Example 365]
The log p of the first is lower: 2.94 for the first, 3.59 for the second.

C#CCCOC(=O)Nc1cccc(CON=C(c2cccc(F)c2)c2nnnn2C)n1 [Example 374] showed a log p of 3.21.
